For this assay, the target named is recombinant EsigPBP3. Briefly: fluorescence competitive binding assay (FCBA) with 1-NPN probe. More on the design: species or system Endoclita signifer. The note with it: for IC50: displacement of 1-NPN, 20 mM Tris-HCl pH 7.4, ligands 2-24 µM; for IC50 / Ki: 2 µM EsigPBP3 and 2 µM 1-NPN; for Ki: from IC50 by Ki = [IC50]/(1 + [1-NPN]/K1-NPN). The method, then:
Fluorescence competition assays were conducted using 1-NPN ([…]) as a selective fluorescence probe to measure the affinity of ligands for binding to the recombinant EsigPBP3 [49]. […] The emission wavelength range was set from 380 nm to 520 nm. After the fluorescence intensity stabilized, scans were performed and the emission was recorded (both excitation and emission slit widths were set to 10 nm). A final concentration of 2 μM EsigPBP3 solution was prepared in 20 mM Tris-HCl buffer (pH 7.4), and the ligands were dissolved in chromatographically pure methanol as 1 mM stock solutions. […] The compound was added proportionally to a mixture with a final concentration of 2 µM EsigPBP3 protein and 2 µM 1-NPN. The ability of ligands to bind to the EsigPBP3 protein was monitored by the decrease in fluorescence intensity.

The structures appear in SMILES notation.

Usually IC50 stands for the point on the concentration scale where inhibition reaches its midpoint. Usually Ki stands for the dissociation constant of the complex between target and ligand, obtained from inhibition or displacement. In the case of `CC1=CCC2CC1C2(C)C` (stereo not drawn) [(−)-α-pinene], the half-inhibitory concentration (IC50) stood at 7.85 µM. Further, the Ki (pH 7.4) was determined as 5.27 µM. For `CCc1ccccc1CC` [benzene, 1,2-diethyl-], in that order: 7.19 µM and 4.83 µM. In the case of `CC(C)(O)c1ccccc1` [2-phenyl-2-propanol], the IC50 is above 24 µM. Moreover, the inhibitory constant (Ki) (pH 7.4) is above 16.1 µM.

Turning to `C=C1C2CCC(C2)C1(C)C` (stereo not shown) [camphene], the 50% inhibitory concentration (IC50) stood at 9.85 µM. Also, the Ki (pH 7.4) was found to be 6.61 µM.

By Kd is commonly meant a measure of binding affinity in units of concentration. As for `c1ccc(Nc2cccc3ccccc23)cc1` [1-NPN, reference compound], for the setting “binding curve and Scatchard plot, 2 µM EsigPBP3, 1-NPN 2-24 µM, pH 7.4, read-out: dissociation constant (Kd) of EsigPBP3 for the reporter ligand 1-NPN”, the Kd turned out to be 3.36 µM. `C=C1CCC2CC1C2(C)C` (stereo not drawn) [(−)-β-pinene]: the IC50 was 4.77 µM. Further, for the setting “pH 7.4”, the inhibition constant (Ki) stood at 3.2 µM. `Cc1cc(C)cc(C)c1` [1,3,5-trimethyl-benzen]: the half-maximal inhibitory concentration (IC50) is above 24 µM. For the setting “pH 7.4”, the Ki was above 16.1 µM. In the case of `CC12CCC(CC1)C(C)(C)O2` [eucalyptol], the IC50 is above 24 µM. Also, the Ki (pH 7.4) is above 16.1 µM. For `CCc1ccc(C(C)=O)cc1` [4-ethylacetophenone] the same measures were 8.26 µM and 5.55 µM. `CC1=CC[C@H](C(C)C)C=C1` [α-phellandrene]: the IC50 was 5.32 µM. Further, the inhibition constant Ki (pH 7.4) was 3.57 µM.

These data come from article PMC10931625, “EsigPBP3 Was the Important Pheromone-Binding Protein to Recognize Male Pheromones and Key Eucalyptus Volatiles” (International Journal of Molecular Sciences, 2024).
